Reference: patent US20230293630A1, “Coronavirus T Cell Epitopes and Uses Thereof” (priority 2020, published 2023)
Where two headings read alike, the source gives them in different places.

Test system: SARS-CoV-2-specific CD4+ T cells (OX40+CD137+) in PBMC
Format: cell-based, human
[1] = CD4+ T cell epitopes identified by AIM assay, share of donors responding
[2] = CD4+ T cell epitopes identified by AIM assay, sum of response per responding donor
[3] = CD4+ T cell epitopes identified by AIM assay, total response
[4] = CD4+ T cell epitopes identified by AIM assay, percent of tested donors responding
[5] = CD4+ T cell epitopes identified by AIM assay, total response summed over donors

KKPRQKRTATKAYNV
Frequency of response (%) [1]: 31% | Magnitude by # of responding donors [2]: 227 | Sum of response [3]: 907

IGINITRFQTLLALH
Frequency of response (%) [4]: 9% | Magnitude by # of responding donors [2]: 177 | Sum of response [5]: 177

LTGTGVLTESNKKFL
Frequency of response (%) [1]: 7% | Magnitude by # of responding donors [2]: 427 | Sum of response [3]: 427

LVAAGLEAPFLYLYA
Frequency of response (%) [1]: 9% | Magnitude by # of responding donors [2]: 133 | Sum of response [3]: 133

ILLNKHIDAYKTFPP
Frequency of response (%) [1]: 42% | Magnitude by # of responding donors [2]: 483 | Sum of response [3]: 2416

NFSQILPDPSKPSKR
Frequency of response (%) [4]: 33% | Magnitude by # of responding donors [2]: 647 | Sum of response [5]: 2589

FTGYRVTKNSKVQIG
Frequency of response (%) [1]: 8% | Magnitude by # of responding donors [2]: 116 | Sum of response [3]: 116

SVLYNSASFSTFKCY
Frequency of response (%) [1]: 8% | Magnitude by # of responding donors [2]: 892 | Sum of response [3]: 892

FGTTLDSKTQSLLIV
Frequency of response (%) [1]: 9% | Magnitude by # of responding donors [2]: 174 | Sum of response [3]: 174

YPKCDRAMPNMLRIM
Frequency of response (%) [1]: 7% | Magnitude by # of responding donors [2]: 153 | Sum of response [3]: 153

DDQIGYYRRATRRIR [SEQ ID NO 245]
Frequency of response (%) [1]: 23% | Magnitude by # of responding donors [2]: 268 | Sum of response [3]: 803

ITGGIAIAMACLVGL
Frequency of response (%) [1]: 17% | Magnitude by # of responding donors [2]: 207 | Sum of response [3]: 414

SDVLYQPPQTSITSA
Frequency of response (%) [1]: 8% | Magnitude by # of responding donors [2]: 394 | Sum of response [3]: 394

VVLSFELLHAPATVC
Frequency of response (%) [1]: 7% | Magnitude by # of responding donors [2]: 317 | Sum of response [3]: 317

CTFEYVSQPFLMDLE
Frequency of response (%) [4]: 64% | Magnitude by # of responding donors [2]: 619 | Sum of response [5]: 4332

RLFARTRSMWSFNPE
Frequency of response (%) [1]: 8% | Magnitude by # of responding donors [2]: 141 | Sum of response [3]: 141

QFAPSASAFFGMSRI
Frequency of response (%) [1]: 17% | Magnitude by # of responding donors [2]: 191 | Sum of response [3]: 381

TNSRIKASMPTTIAK
Frequency of response (%) [1]: 8% | Magnitude by # of responding donors [2]: 360 | Sum of response [3]: 360

SIAIPTNFTISVTTE
Frequency of response (%) [1]: 8% | Magnitude by # of responding donors [2]: 274 | Sum of response [3]: 274

GINASVVNIQKEIDR
Frequency of response (%) [4]: 8% | Magnitude by # of responding donors [2]: 267 | Sum of response [5]: 267

TITSGWTFGAGAALQ
Frequency of response (%) [1]: 9% | Magnitude by # of responding donors [2]: 164 | Sum of response [3]: 164

TDEMIAQYTSALLAG
Frequency of response (%) [1]: 9% | Magnitude by # of responding donors [2]: 745 | Sum of response [3]: 745

NPVLPFNDGVYFAST
Frequency of response (%) [1]: 9% | Magnitude by # of responding donors [2]: 413 | Sum of response [3]: 413

IGNYKLNTDHSSSSD
Frequency of response (%) [1]: 15% | Magnitude by # of responding donors [2]: 134 | Sum of response [3]: 267

VWHVNNATNKATYKP
Frequency of response (%) [1]: 8% | Magnitude by # of responding donors [2]: 158 | Sum of response [3]: 158

LPYGANKDGIIWVAT
Frequency of response (%) [1]: 14% | Magnitude by # of responding donors [2]: 418 | Sum of response [3]: 835

IPFAMQMAYRFNGIG
Frequency of response (%) [1]: 18% | Magnitude by # of responding donors [2]: 187 | Sum of response [3]: 373

SWFTALTQHGKEDLK
Frequency of response (%) [1]: 23% | Magnitude by # of responding donors [2]: 1088 | Sum of response [3]: 3265

LMDLEGKQGNFKNLR
Frequency of response (%) [1]: 36% | Magnitude by # of responding donors [2]: 347 | Sum of response [3]: 1386

VLAAVYRINWITGGI
Frequency of response (%) [1]: 42% | Magnitude by # of responding donors [2]: 504 | Sum of response [3]: 2519

KNPLLYDANYFLCWH [SEQ ID NO 253]
Frequency of response (%) [4]: 7% | Magnitude by # of responding donors [2]: 112 | Sum of response [5]: 112

TQAFGRRGPEQTQGN
Frequency of response (%) [1]: 8% | Magnitude by # of responding donors [2]: 151 | Sum of response [3]: 151

YCIDGALLTKSSEYK
Frequency of response (%) [1]: 7% | Magnitude by # of responding donors [2]: 119 | Sum of response [3]: 119

CNLLLLFVTVYSHLL
Frequency of response (%) [1]: 18% | Magnitude by # of responding donors [2]: 212 | Sum of response [3]: 424

MKDLSPRWYFYYLGT
Frequency of response (%) [1]: 14% | Magnitude by # of responding donors [2]: 2536 | Sum of response [3]: 5072

KEGQINDMILSLLSK
Frequency of response (%) [1]: 33% | Magnitude by # of responding donors [2]: 391 | Sum of response [3]: 391

NTVKSVGKFCLEASF
Frequency of response (%) [1]: 8% | Magnitude by # of responding donors [2]: 113 | Sum of response [3]: 113

SSANNCTFEYVSQPF
Frequency of response (%): 27% | Magnitude by # of responding donors: 1426 | Sum of response: 4279

EDFLEYHDVRVVLDF
Frequency of response (%) [1]: 18% | Magnitude by # of responding donors [2]: 571 | Sum of response [3]: 1141

ARKSAPLIELCVDEA
Frequency of response (%) [1]: 18% | Magnitude by # of responding donors [2]: 329 | Sum of response [3]: 658

PRPPLNRNYVFTGYR
Frequency of response (%) [1]: 8% | Magnitude by # of responding donors [2]: 101 | Sum of response [3]: 101

VPGLPGTILRTTNGD
Frequency of response (%) [1]: 9% | Magnitude by # of responding donors [2]: 439 | Sum of response [3]: 439

NLVIGFLFLTWICLL
Frequency of response (%) [1]: 7% | Magnitude by # of responding donors [2]: 261 | Sum of response [3]: 261

CVDEAGSKSPIQYID
Frequency of response (%) [1]: 9% | Magnitude by # of responding donors [2]: 327 | Sum of response [3]: 327

QRNFYEPQIITTDNT
Frequency of response (%) [1]: 7% | Magnitude by # of responding donors [2]: 302 | Sum of response [3]: 302

KIITLKKRWQLALSK
Frequency of response (%) [1]: 9% | Magnitude by # of responding donors [2]: 120 | Sum of response [3]: 120

LNTDHSSSSDNIALL
Frequency of response (%) [1]: 8% | Magnitude by # of responding donors [2]: 568 | Sum of response [3]: 568

LGRCDIKDLPKEITV
Frequency of response (%) [1]: 25% | Magnitude by # of responding donors [2]: 313 | Sum of response [3]: 938

IGNYTVSCLPFTINC
Frequency of response (%) [1]: 45% | Magnitude by # of responding donors [2]: 245 | Sum of response [3]: 1223

EHVTFFIYNKIVDEP
Frequency of response (%) [1]: 14% | Magnitude by # of responding donors [2]: 139 | Sum of response [3]: 277

LTYTGAIKLDDKDPN
Frequency of response (%) [1]: 17% | Magnitude by # of responding donors [2]: 742 | Sum of response [3]: 1484

SIVAGGIVAIVVTCL
Frequency of response (%) [1]: 9% | Magnitude by # of responding donors [2]: 109 | Sum of response [3]: 109

VVIKVCEFQFCNDPF
Frequency of response (%) [1]: 9% | Magnitude by # of responding donors [2]: 2088 | Sum of response [3]: 2088

HWFVTQRNFYEPQII
Frequency of response (%) [1]: 7% | Magnitude by # of responding donors [2]: 598 | Sum of response [3]: 598

DSKTQSLLIVNNATN
Frequency of response (%) [1]: 9% | Magnitude by # of responding donors [2]: 108 | Sum of response [3]: 108

TVTLLPAADLDDFSK
Frequency of response (%) [1]: 7% | Magnitude by # of responding donors [2]: 648 | Sum of response [3]: 648

SFIEDLLFNKVTLAD
Frequency of response (%) [4]: 17% | Magnitude by # of responding donors [2]: 406 | Sum of response [5]: 812

QYGDCLGDIAARDLI
Frequency of response (%) [1]: 8% | Magnitude by # of responding donors [2]: 152 | Sum of response [3]: 152

FLGIITTVAAFHQEC [SEQ ID NO 254]
Frequency of response (%) [4]: 9% | Magnitude by # of responding donors [2]: 185 | Sum of response [5]: 185

IKDLPKEITVATSRT
Frequency of response (%) [1]: 23% | Magnitude by # of responding donors [2]: 258 | Sum of response [3]: 774

GKQGNFKNLREFVFK
Frequency of response (%) [1]: 9% | Magnitude by # of responding donors [2]: 129 | Sum of response [3]: 129

CAQKFNGLTVLPPLL
Frequency of response (%) [4]: 9% | Magnitude by # of responding donors [2]: 741 | Sum of response [5]: 741

SHRFYRLANECAQVL
Frequency of response (%) [1]: 6% | Magnitude by # of responding donors [2]: 535 | Sum of response [3]: 535

ADAVIKTLQPVSELL
Frequency of response (%) [1]: 8% | Magnitude by # of responding donors [2]: 436 | Sum of response [3]: 436

EGALNTPKDHIGTRN
Frequency of response (%) [1]: 14% | Magnitude by # of responding donors [2]: 185 | Sum of response [3]: 369

FGLVAEWFLAYILFT
Frequency of response (%) [1]: 8% | Magnitude by # of responding donors [2]: 219 | Sum of response [3]: 219

APHGVVFLHVTYVPA
Frequency of response (%) [4]: 7% | Magnitude by # of responding donors [2]: 293 | Sum of response [5]: 293

AQYTSALLAGTITSG
Frequency of response (%) [4]: 9% | Magnitude by # of responding donors [2]: 336 | Sum of response [5]: 336

RFYFYTSKTTVASLI
Frequency of response (%) [1]: 8% | Magnitude by # of responding donors [2]: 126 | Sum of response [3]: 126

TFTRSTNSRIKASMP
Frequency of response (%) [1]: 8% | Magnitude by # of responding donors [2]: 120 | Sum of response [3]: 120

TLRVEAFEYYHTTDP
Frequency of response (%) [1]: 18% | Magnitude by # of responding donors [2]: 318 | Sum of response [3]: 635

TQHQPYVVDDPCPIH
Frequency of response (%) [1]: 36% | Magnitude by # of responding donors [2]: 338 | Sum of response [3]: 1352

LGDIAARDLICAQKF
Frequency of response (%) [1]: 8% | Magnitude by # of responding donors [2]: 153 | Sum of response [3]: 153

TDYKHWPQIAQFAPS
Frequency of response (%) [1]: 8% | Magnitude by # of responding donors [2]: 180 | Sum of response [3]: 180

TQLNRALTGIAVEQD
Frequency of response (%) [4]: 8% | Magnitude by # of responding donors [2]: 260 | Sum of response [5]: 260

AGNGGDAALALLLLD
Frequency of response (%): 21% | Magnitude by # of responding donors: 416 | Sum of response: 1249
